Experimental findings from patent US5773423A (priority 1994, dated 1998) are described below.

Where two headings read alike, the source gives them in different places. Where only a bound is given, the exact number is not on record here.

In assay [1] the target is T1, A1 receptors from rat brain membranes (Rattus norvegicus, UniProt P25099).
T1 construct: Rat cerebral cortical and striatal membranes were prepared; from tissue; host or cells: rat brain (cerebral cortical) membranes
T1 sequence (P25099 1-326): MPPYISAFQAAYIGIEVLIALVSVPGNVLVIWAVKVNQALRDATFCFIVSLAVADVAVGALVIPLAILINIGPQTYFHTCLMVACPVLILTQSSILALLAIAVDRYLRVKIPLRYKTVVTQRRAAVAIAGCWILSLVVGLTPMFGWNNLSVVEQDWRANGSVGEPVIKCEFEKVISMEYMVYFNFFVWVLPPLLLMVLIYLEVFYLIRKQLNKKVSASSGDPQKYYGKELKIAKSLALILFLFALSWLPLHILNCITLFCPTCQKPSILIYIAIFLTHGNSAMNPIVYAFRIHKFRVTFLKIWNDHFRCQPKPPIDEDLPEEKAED
Description: biochemical. In kind it is binding.

Assay [2] deals with T2, A2 receptors from rat striatal membranes (Rattus norvegicus, UniProt P30543).
T2 construct: Rat cerebral cortical and striatal membranes were prepared; from tissue; host or cells: rat striatal membranes
Description: Radioligand binding at A2 (A2a) receptors, displacement of [3H]CGS 21680 (or [3H]NECA with 50 nM CPA) from rat striatal membranes. A general note: Loss of bound radioactivity is the signal in a displacement assay; it reports binding, not function.

Where [3] appears, read: at 100 μM, read-out: A1 percent displacement.
Where [4] appears, read: at 100 μM, read-out: A2 percent displacement.
The mark [5] stands for this setting: rat brain membranes, displacement of [3H]PIA (or [3H]CHA), read-out: A1 affinity Ki.
Setting [6] is: rat striatal membranes, displacement of [3H]CGS 21680 (or [3H]NECA + 50 nM CPA), read-out: A2 affinity Ki.
Setting [7] is: read-out: A2 percent displacement.
Where [8] appears, read: Table 4, [3H]PIA, rat brain membranes, read-out: Ki (A1).
The mark [9] stands for this setting: Table 4, [3H]CGS 21680, rat striatal membranes, read-out: Ki (A2).
The mark [10] stands for this setting: read-out: percent displacement of radioligand at A2.
Where [11] appears, read: Table 2, [3H]CGS 21680, rat striatal membranes, read-out: Ki (A2).
[12] abbreviates: read-out: A1 percent displacement.

T2 sequence (P30543 whole entry): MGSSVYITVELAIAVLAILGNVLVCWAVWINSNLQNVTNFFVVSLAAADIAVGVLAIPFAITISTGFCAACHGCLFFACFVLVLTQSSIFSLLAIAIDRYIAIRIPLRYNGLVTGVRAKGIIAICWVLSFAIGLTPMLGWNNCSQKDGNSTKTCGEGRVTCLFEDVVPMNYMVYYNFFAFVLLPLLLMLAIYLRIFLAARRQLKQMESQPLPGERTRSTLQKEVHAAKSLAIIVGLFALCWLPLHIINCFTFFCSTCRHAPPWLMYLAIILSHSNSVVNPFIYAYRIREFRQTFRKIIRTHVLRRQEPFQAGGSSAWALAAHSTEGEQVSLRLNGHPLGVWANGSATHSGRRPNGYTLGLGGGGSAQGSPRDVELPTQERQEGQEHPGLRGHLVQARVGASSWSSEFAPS

As to `O=c1[nH]c(=O)c2ncn([C@@H]3O[C@H](CO)[C@@H](O)[C@H]3O)c2[nH]1` [Compound 81, xanthosine, reference compound], the inhibition at 100 µM in assay [1] (setting [3]) worked out at 9.1 ± 2.4%; in assay [2] (setting [4]) it was 8.5 ± 2.5%.

Broadly, the Ki is a dissociation constant, usually derived from enzyme kinetics or from competition with a known ligand. In the case of `CN(Cc1ccccc1)c1ncnc2c1ncn2[C@@H]1O[C@H](CO)[C@@H](O)[C@H]1O` [Compound 30, N^6 -benzyl-N^6 -methyladenosine, reference compound], the Ki in assay [1] (setting [5]) was 7600 nM; in assay [2] (setting [6]), 40100 nM.

On to `Nc1ncnc2c1ncn2[C@@H]1O[C@H](CO)C[C@H]1O` [Compound 72, 3'-deoxyadenosine, reference compound], for which the inhibition at 100 µM in assay [1] (setting [3]) turned out to be 5.8 ± 2.8%; in assay [2] (setting [4]), 26.3 ± 3.4%.

As to `OC[C@H]1O[C@@H](n2cnc3c(=S)[nH]cnc32)[C@H](O)[C@@H]1O` [Compound 89, 6-thiopurine riboside, reference compound], the inhibition at 100 µM in assay [1] (setting [3]) came out at 61.2 ± 3.9%; in assay [2] (setting [7]), 33.6 ± 3.3%.

`CCCCn1c(=O)c2c(ncn2[C@@H]2O[C@H](CO)[C@@H](O)[C@H]2O)n(Cc2ccccc2)c1=O` [Compound 121, 3-benzyl-1-butylxanthine-7-β-D-ribofuranoside]: the “potency increase at A1 and A2a receptors vs 1,3-di-n-butylxanthine-7-β-D-ribofuranoside” value in assay [1] (A1 and A2a receptors) is given as 2-4 fold. In addition, the inhibitory constant (Ki) in assay [1] (setting [8]) was 1720 ± 30 nM; in assay [2] (setting [9]) it was 4510 nM; in assay [2] (setting [6]) it was 4510 nM.

On to `CNC(=O)[C@H]1O[C@@H](n2cnc3c(=O)[nH]cnc32)[C@H](O)[C@@H]1O` [Compound 90, inosine-5'-N-methyluronamide], for which the inhibition at 100 µM came to 0% in assay [1] (setting [3]) and 6.2 ± 4.2% in assay [2] (setting [7]).

Take `COc1nc2c(c(=O)n(C)c(=O)n2C)n1[C@@H]1O[C@H](CO)[C@@H](O)[C@H]1O` [Example 59, 8-methoxytheophylline-7-β-D-ribofuranoside]: the inhibition at 100 µM in assay [1] (Table 4, at 10^-4 M, read-out: percent displacement of radioligand at A1) amounted to 21 ± 3%; in assay [2] (Table 4, at 10^-4 M, read-out: percent displacement of radioligand at A2), 4%.

For the compound `[O-][n+]1cnc2c(ncn2[C@@H]2O[C@H](CO)[C@@H](O)[C@H]2O)c1NCc1ccccc1` [Compound 36, N^6 -benzyladenosine-N^1 -oxide], the Ki in assay [1] (setting [5]) worked out at 864 ± 88 nM; in assay [2] (setting [6]), 8530 nM.

Consider `Cn1cnc2[nH]c(=O)[nH]c(=O)c21` [Compound 101, 7-methylX, reference compound], for which the inhibition at 100 µM is 52.3 ± 7.9% in assay [1] (setting [3]) and 37.7 ± 4.9% in assay [2] (setting [7]).

On to `CCCCn1c(=O)c2c(ncn2[C@@H]2O[C@H](C(=O)OC)[C@@H](O)[C@H]2O)n(CCCC)c1=O` [Compound 122, methyl 1,3-di-n-butylxanthine-7-β-D-ribofuronate], for which the Ki in assay [1] (setting [8]) came to 3720 nM. In addition, the inhibition at 3 µM in assay [2] (setting [10]) was found to be 0%.

As for `CCCn1c(=S)[nH]c(=O)c2[nH]cnc21` [Compound 114, 2-thio-3-propylX, reference compound], the Ki in assay [1] (setting [5]) amounted to 26100 nM; in assay [2] (setting [6]), 32500 nM.

Turning to `CCNC(=O)[C@H]1O[C@@H](n2cnc3c(NCc4ccccc4[N+](=O)[O-])ncnc32)[C@H](O)[C@@H]1O` [Compound 61, N^6-(2-nitrobenzyl)adenosine-5'-N-ethyluronamide], the Ki in assay [1] (setting [5]) worked out at 31 ± 4 nM; in assay [2] (setting [6]), 24 ± 3 nM.

In assay [1], `Nc1ccc(CCNc2ncnc3c2ncn3[C@@H]2O[C@H](CO)[C@@H](O)[C@H]2O)cc1` [APNEA, N^6-2-(4-aminophenyl)ethyladenosine, reference compound] displayed an A1 selectivity of 8 fold. The Ki in assay [2] (setting [11]) is 172 ± 50 nM.

For `CNC(=O)[C@H]1O[C@@H](n2cnc3c(NCc4cccc(I)c4)nc(NC)nc32)[C@H](O)[C@@H]1O` [Example 45, N^6-(3-iodobenzyl)-2-methylamino-9-[5-(methylamido)-β-D-ribofuranosyl]-adenine], the Ki in assay [1] (Table 2, [3H]PIA, rat brain membranes, read-out: Ki (A1)) was 4890 ± 2580 nM; in assay [2] (setting [11]), 4120 ± 210 nM.

`Cn1c(=O)[nH]c2c(ncn2C)c1=O` [Compound 105, 1,9-dimethylX, reference compound]: the figures for the inhibition at 100 µM in assay [1] (setting [3]) and in assay [2] (setting [7]) were 29.4 ± 1.6% and 6 ± 6.3%, respectively.

For `CCCn1c(=O)c2c(ncn2[C@@H]2O[C@H](CO)[C@@H](O)[C@H]2O)n(CCC)c1=O` [Compound 118, 1,3-di-n-propylxanthine-7-β-D-ribofuranoside, reference compound], in assay [1] (setting [5]), the Ki was found to be 15900 nM. In addition, the inhibition at 100 µM in assay [2] (setting [7]) is 32 ± 1.1%; in assay [2] (setting [10]), 32%.

For `CCNC(=O)[C@H]1O[C@@H](n2cnc3c(NCc4cccc(Cl)c4)ncnc32)[C@H](O)[C@@H]1O` [Compound 58, N^6-(3-chlorobenzyl)adenosine-5'-N-ethyluronamide], the values for the Ki in assay [1] (setting [5]) and in assay [2] (setting [6]) were 22 ± 3 nM and 19 ± 0.3 nM, respectively.

For `Nc1ncnc2c1nc(Br)n2[C@@H]1O[C@H](CO)[C@@H](O)[C@H]1O` [Compound 31, 8-bromoadenosine, reference compound], in assay [1] (setting [12]), the inhibition at 100 µM is 41.5 ± 3.2%. Moreover, in assay [2] (setting [6]), the Ki was determined as 22700 nM.

As to `Cn1c(=O)c2[nH]c(Cl)nc2n(C)c1=O` [Compound 132, 8-chloroT, reference compound], the inhibition at 100 µM in assay [1] (setting [3]) stood at 30.2 ± 6.7%; in assay [2] (setting [7]), 24.7 ± 3.9%.

Take `CCNC(=O)[C@H]1O[C@@H](n2cnc3c(=N)n(Cc4ccc([N+](=O)[O-])cc4)cnc32)[C@H](O)[C@@H]1O` [Compound 37]: the Ki in assay [1] (setting [5]) turned out to be 341 ± 52 nM; in assay [2] (setting [6]), 190 ± 52 nM.

With `CCNC(=O)[C@H]1O[C@@H](n2cnc3c(NCc4cccc(I)c4)ncnc32)[C@H](O)[C@@H]1O` [Compound 60, N^6-(3-iodobenzyl)-NECA], the Ki in assay [1] (setting [5]) was 7.7 ± 0.9 nM; in assay [2] (setting [6]) it was 7.2 ± 0.6 nM.

Usually IC50 stands for the midpoint of a concentration-inhibition curve. Low readings indicate inhibition by little substance, high ones a need for much substance. `CCNC(=O)[C@H]1O[C@@H](n2cnc3c(=O)[nH]cnc32)[C@H](O)[C@@H]1O` [Compound 91, inosine-5'-N-ethyluronamide]: the half-maximal inhibitory concentration (IC50) in assay [1] and in assay [2] was greater than 100000 nM each time. In addition, the inhibition at 100 µM worked out at 43.7 ± 10.3% in assay [1] (setting [12]) and 30.6 ± 2.3% in assay [2] (setting [7]).

As to `O=c1ccn([C@@H]2O[C@H](CO)[C@@H](O)[C@H]2O)c(=O)[nH]1` [Compound 82, uridine, reference compound], the inhibition at 100 µM in assay [1] (setting [3]) stood at 14.3 ± 6.9%; in assay [2] (setting [7]), 2.8 ± 5.2%.

In the case of `Cn1cnc2c(=O)[nH]c(=O)n(C)c21` [Compound 107, 3,9-dimethylX, reference compound], the results for the inhibition at 100 µM in assay [1] (setting [3]) and in assay [2] (setting [7]) were 19.7 ± 7.9% and 4.2 ± 5.9%, respectively.

Regarding `C[C@H]1O[C@@H](n2cnc3c(N)ncnc32)[C@H](O)[C@@H]1O` [Compound 73, 5'-deoxyadenosine, reference compound], the Ki in assay [1] (setting [5]) was found to be 269 ± 135 nM; in assay [2] (setting [6]) it was 596 ± 54 nM.

For the compound `CCNC(=O)[C@H]1O[C@@H](n2cnc3c(NCc4cccc([N+](=O)[O-])c4)ncnc32)[C@H](O)[C@@H]1O` [Compound 62, N^6-(3-nitrobenzyl)-NECA], the values for the Ki in assay [1] (setting [5]) and in assay [2] (setting [6]) were 78 ± 10 nM and 35 ± 7 nM, respectively.

For the compound `CCNC(=O)[C@H]1O[C@@H](n2cnc3c(NCc4cccc(OC)c4)ncnc32)[C@H](O)[C@@H]1O` [Compound 66, N^6-(3-methoxybenzyl)-NECA], the results for the Ki in assay [1] (setting [5]) and in assay [2] (setting [6]) were 69 ± 8 nM and 38 ± 6 nM, respectively.

Consider `CCNC(=O)[C@H]1O[C@@H](n2cnc3c(NCc4cccc(C)c4)ncnc32)[C@H](O)[C@@H]1O` [Compound 64, N^6-(3-methylbenzyl)-NECA], for which the Ki in assay [1] (setting [5]) stood at 36.5 ± 1.2 nM; in assay [2] (setting [6]), 17.7 ± 1.8 nM.

On to `Nc1nc(SCc2ccc([N+](=O)[O-])cc2)c2ncn([C@@H]3O[C@H](CO)[C@@H](O)[C@H]3O)c2n1` [Compound 87, (4-nitrobenzyl)-6-thioguanosine, reference compound], for which the Ki in assay [1] (setting [5]) amounted to 15000 nM; in assay [2] (setting [6]) it was 48500 nM.

As to `CCCCn1c(=O)c2c(ncn2[C@@H]2O[C@H](CO)[C@@H](O)[C@H]2O)n(CCCC)c1=O` [Compound 119, 1,3-di-n-butylxanthine-7-β-D-ribofuranoside], the Ki in assay [1] (setting [5]) came out at 4190 nM; in assay [2] (setting [6]) it was 19500 nM.

With `Nc1c2ncn([C@@H]3O[C@H](CO)[C@@H](O)[C@H]3O)c2nc[n+]1[O-]` [Compound 34, adenosine-N^1 -oxide, reference compound], the results for the Ki in assay [1] and in assay [2] (setting [6]) were 246 ± 31 nM and 328 ± 60 nM, respectively.

As to `Nc1ncnc2c1ncn2[C@H]1C[C@H](O)[C@@H](CO)O1` [Compound 70, 2'-deoxyadenosine, reference compound], the values for the inhibition at 100 µM in assay [1] (setting [3]) and in assay [2] (setting [4]) were 30.9 ± 8% and 38.9 ± 2.9%, respectively.

Turning to `Nc1ccn([C@@H]2O[C@H](CO)[C@@H](O)[C@H]2O)c(=O)n1` [Compound 84, cytidine, reference compound], the inhibition at 100 µM in assay [1] (setting [12]) was 18 ± 1.2%; in assay [2] (setting [7]), 16 ± 1.5%.

In the case of `CCCCn1c(=O)n(Cc2ccccc2)c(=O)c2c1ncn2[C@@H]1O[C@H](CO)[C@@H](O)[C@H]1O` [Compound 120, 1-benzyl-3-butylxanthine-7-β-D-ribofuranoside], the “potency increase at A1 and A2a receptors vs 1,3-di-n-butylxanthine-7-β-D-ribofuranoside” value in assay [1] is 2-4 fold. The Ki in assay [1] (setting [8]) came to 2190 nM; in assay [2] (setting [9]) it was 8670 nM; in assay [2] (setting [6]), 3800 nM.
